Source: US12077503B2, “Substituted cyclic amides and their use as herbicides” (FMC CORPORATION, priority 2015, dated 2024)

Tests used:
Format in all cases: in vivo
Kochia (Kochia scoparia) [1] = assay: Test A preemergence; conditions: for Plant response rating, Kochia: 125 g ai/ha, preemergence, 0 to 100 scale (0 no effect, 100 complete control)
In short: (§1)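 Visual injury, scored on a 0–100 scale relative to untreated controls, was recorded about 10 d after application. Treatments were a preemergence soil spray over planted seeds or a postemergence spray on plants at the one- to two-leaf stage, 2 to 10 cm tall, all in loam soil–sand blend in the greenhouse.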

[2] = test system: barnyardgrass (Echinochloa crus-galli); assay: Test A preemergence; conditions: for Plant response rating, Barnyardgrass: 125 g ai/ha, preemergence, 0 to 100 scale (0 no effect, 100 complete control)
In short: as §1

[3] = test system: giant foxtail (Setaria faberii); assay: Test A preemergence; conditions: for Plant response rating, Foxtail, Giant: 125 g ai/ha, preemergence, 0 to 100 scale (0 no effect, 100 complete control)
In short: as §1

[4] = test system: pigweed (Amaranthus retroflexus); assay: Test A preemergence; conditions: for Plant response rating, Pigweed: 125 g ai/ha
[5] = test system: ragweed (common ragweed, Ambrosia elatior); assay: Test A preemergence; conditions: for Plant response rating, Ragweed: 125 g ai/ha
In short: as §1

[6] = test system: ryegrass, Italian (Italian ryegrass, Lolium multiflorum); assay: Test A preemergence; conditions: for Plant response rating, Ryegrass, Italian: 125 g ai/ha
In short: as §1

[7] = test system: Galium (catchweed bedstraw, Galium aparine); assay: Test A postemergence; conditions: for Galium plant response rating: 125 g ai/ha, visual injury rating on 0 to 100 scale (0 no effect, 100 complete control), approx. 10 d; for Plant response rating, Galium: 500 g ai/ha
In short: as §1

Kochia (Kochia scoparia) [8] = assay: Test A postemergence; conditions: for Kochia plant response rating: 125 g ai/ha, visual injury rating on 0 to 100 scale (0 no effect, 100 complete control), approx. 10 d; for Plant response rating, Kochia: 500 g ai/ha
In short: as §1

[9] = test system: barnyardgrass (Echinochloa crus-galli); assay: Test A postemergence
In short: as §1

[10] = test system: blackgrass (Alopecurus myosuroides); assay: Test A postemergence
In short: as §1

corn (Zea mays) = assay: Test A postemergence; conditions: postemergence; for Corn plant response rating: 125 g ai/ha, visual injury rating on 0 to 100 scale (0 no effect, 100 complete control), approx. 10 d; for Plant response rating, Corn: 500 g ai/ha, 0 to 100 scale, 0 no effect, 100 complete control
In short: as §1

[11] = test system: giant foxtail (Setaria faberii); assay: Test A postemergence; conditions: for Foxtail, Giant plant response rating: 125 g ai/ha, visual injury rating on 0 to 100 scale (0 no effect, 100 complete control), approx. 10 d; for Plant response rating, Foxtail, Giant: 500 g ai/ha
In short: as §1

[12] = test system: pigweed (Amaranthus retroflexus); assay: Test A postemergence; conditions: for Pigweed plant response rating: 125 g ai/ha, visual injury rating on 0 to 100 scale (0 no effect, 100 complete control), approx. 10 d; for Plant response rating, Pigweed: 500 g ai/ha
In short: as §1

[13] = test system: ragweed (common ragweed, Ambrosia elatior); assay: Test A postemergence; conditions: for Ragweed plant response rating: 125 g ai/ha, visual injury rating on 0 to 100 scale (0 no effect, 100 complete control), approx. 10 d; for Plant response rating, Ragweed: 500 g ai/ha
In short: as §1

[14] = test system: ryegrass, Italian (Italian ryegrass, Lolium multiflorum); assay: Test A postemergence; conditions: for Ryegrass, Italian plant response rating: 125 g ai/ha, visual injury rating on 0 to 100 scale (0 no effect, 100 complete control), approx. 10 d; for Plant response rating, Ryegrass, Italian: 500 g ai/ha
In short: as §1

[15] = test system: wheat (Triticum aestivum); assay: Test A postemergence; conditions: for Wheat plant response rating: 125 g ai/ha, visual injury rating on 0 to 100 scale (0 no effect, 100 complete control), approx. 10 d; for Plant response rating, Wheat: 500 g ai/ha
In short: as §1

[16] = test system: barnyardgrass (Echinochloa crus-galli); assay: Test B flooded paddy test; conditions: Flood, 0 to 100 scale where 0 is no effect and 100 is complete control, 13 to 15 d
In short: (§2)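 Visual ratings (0 none to 100 complete control) are relative to untreated plants, taken 13–15 d after treatment in a greenhouse. Test material went straight into floodwater standing 3 cm above the soil, kept constant, on plants at the 2-leaf stage.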

[17] = test system: ducksalad (Heteranthera limosa); assay: Test B flooded paddy test; conditions: Flood, 0 to 100 scale where 0 is no effect and 100 is complete control, 13 to 15 d
In short: as §2

rice (Oryra sativa) = assay: Test B flooded paddy test; conditions: Flood, 0 to 100 scale where 0 is no effect and 100 is complete control, 13 to 15 d
In short: as §2

[18] = test system: sedge, umbrella (small-flower umbrella sedge, Cyperus difformis); assay: Test B flooded paddy test; conditions: Flood, 0 to 100 scale where 0 is no effect and 100 is complete control, 13 to 15 d
In short: as §2

[19] = Preemergence, 500 g ai/ha, visual injury approx. 10 d
[20] = Preemergence, visual injury after approximately 10 d, 0 to 100 scale where 0 is no effect and 100 is complete control
[21] = Postemergence, 0 to 100 scale where 0 is no effect and 100 is complete control
[22] = 125 g ai/ha, postemergence, visual injury rating on 0 to 100 scale (0 no effect, 100 complete control), approx. 10 d
[23] = 500 g ai/ha, postemergence, 0 to 100 scale, 0 no effect, 100 complete control
[24] = Preemergence, 500 g ai/ha, 0 is no effect, 100 is complete control
[25] = preemergence, 0 to 100 scale (0 no effect, 100 complete control)
[26] = postemergence, 0 to 100 scale, 0 no effect, 100 complete control
[27] = Postemergence, 125 g ai/ha, visual injury, 0 to 100 scale (0 no effect, 100 complete control), approx. 10 d

O=C1NCC(c2ccc(C(F)(F)F)cc2F)C1C(=O)Nc1cccc(F)c1F (stereo not drawn) [Compound 475]
20: Plant response rating, Ryegrass, Italian [6, 20] | Ragweed plant response rating ([13]; postemergence) | Ryegrass, Italian plant response rating ([14]; postemergence) | Plant response rating, Barnyardgrass ([16]; 250 g ai/ha)
30: Blackgrass plant response rating [10, 22] | Plant response rating, Ragweed [13, 21] | Plant response rating, Ryegrass, Italian [14, 21] | Plant response rating, Wheat [15, 21]
100: Plant response rating, Ducksalad ([17]; 250 g ai/ha)
40: Ryegrass, Italian plant response rating (0 to 100 scale, 0 is no effect, 100 is complete control) [6, 19] | Kochia plant response rating (Kochia (Kochia scoparia) [8]; postemergence) | Plant response rating, Blackgrass [10, 23]
0: Corn plant response rating (corn (Zea mays)) | Wheat plant response rating ([15]; postemergence) | Plant response rating, Sedge, Umbrella ([18]; 250 g ai/ha)
90: Plant response rating, Barnyardgrass [2] | Barnyardgrass plant response rating (0 to 100 scale, 0 is no effect, 100 is complete control) [2, 19] | Plant response rating, Foxtail, Giant [3] | Foxtail, Giant plant response rating (0 to 100 scale, 0 is no effect, 100 is complete control) [3, 19] | Pigweed plant response rating (0 to 100 scale, 0 is no effect, 100 is complete control) [4, 19] | Barnyardgrass plant response rating [9, 22] | Plant response rating, Barnyardgrass [9, 23] | Foxtail, Giant plant response rating ([11]; postemergence) | Plant response rating, Foxtail, Giant [11, 21]
15: Plant response rating, Rice (rice (Oryra sativa); 250 g ai/ha)
60: Plant response rating, Pigweed [4, 20] | Ragweed plant response rating (0 to 100 scale, 0 is no effect, 100 is complete control) [5, 19] | Plant response rating, Galium [7, 21] | Plant response rating, Kochia (Kochia (Kochia scoparia) [8]; [21]) | Plant response rating, Corn (corn (Zea mays))
70: Plant response rating, Kochia (Kochia (Kochia scoparia) [1]) | Kochia plant response rating (0 to 100 scale, 0 is no effect, 100 is complete control) (Kochia (Kochia scoparia) [1]; [19]) | Plant response rating, Pigweed [12, 21]
50: Plant response rating, Ragweed [5, 20] | Galium plant response rating ([7]; postemergence) | Pigweed plant response rating ([12]; postemergence)

O=C1NCC(c2cccc(OCC(F)F)c2)C1C(=O)Nc1cccc(F)c1F (stereo not drawn) [Compound 389]
0: Plant response rating, Kochia (Kochia (Kochia scoparia) [1]) | Kochia plant response rating (0 to 100 scale) (Kochia (Kochia scoparia) [1]; [24]) | Plant response rating, Pigweed [4, 25] | Pigweed plant response rating (0 to 100 scale) [4, 24] | Plant response rating, Ragweed [5, 25] | Ragweed plant response rating (0 to 100 scale) [5, 24] | Plant response rating, Ryegrass, Italian [6, 25] | Ryegrass, Italian plant response rating (0 to 100 scale) [6, 24] | Galium plant response rating ([7]; postemergence) | Plant response rating, Galium [7, 26] | Kochia plant response rating (Kochia (Kochia scoparia) [8]; postemergence) | Plant response rating, Kochia (Kochia (Kochia scoparia) [8]; [26]) | Plant response rating, Blackgrass [10, 23] | Plant response rating, Blackgrass [10, 27] | Pigweed plant response rating ([12]; postemergence) | Ragweed plant response rating ([13]; postemergence) | Plant response rating, Ragweed [13, 26] | Ryegrass, Italian plant response rating ([14]; postemergence) | Plant response rating, Ryegrass, Italian [14, 26] | Wheat plant response rating ([15]; postemergence) | Plant response rating, Wheat [15, 26] | Plant response rating, Sedge, Umbrella ([18]; 500 g ai/ha)
100: Plant response rating, Ducksalad ([17]; 500 g ai/ha)
90: Foxtail, Giant plant response rating (0 to 100 scale) [3, 24]
50: Plant response rating, Barnyardgrass [9, 27] | Plant response rating, Corn (corn (Zea mays))
15: Plant response rating, Rice (rice (Oryra sativa); 500 g ai/ha)
20: Plant response rating, Pigweed [12, 26]
70: Plant response rating, Barnyardgrass [2] | Barnyardgrass plant response rating (0 to 100 scale) [2, 24] | Plant response rating, Barnyardgrass [9, 23] | Plant response rating, Foxtail, Giant [11, 26]
30: Corn plant response rating (corn (Zea mays))
60: Foxtail, Giant plant response rating ([11]; postemergence) | Plant response rating, Barnyardgrass ([16]; 500 g ai/ha)
80: Plant response rating, Foxtail, Giant [3]
